Laboratory results reported in the supplement of paper PMC10307832.

Key:
Assay in all cases: relative viability (nuclei count vs DMSO), 5 days (fraction); higher = more cells survive
Elesclomol + OSI-027 = compound: CN(NC(=O)CC(=O)NN(C)C(=S)c1ccccc1)C(=S)c1ccccc1 [Elesclomol] + COc1cccc2cc(-c3nc([C@H]4CC[C@H](C(=O)O)CC4)n4ncnc(N)c34)[nH]c12 [OSI-027] (partner 0.5 µM)
Method in brief: (§1)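 Five library-drug doses in √10 steps were combined with a fixed anchor-drug dose, or a single drug was given alone, by pin tool to lung cancer cell lines in 1536-well plates the day after seeding. Nuclei were stained and counted after 5 days. Relative viability is the nuclei count in treated wells over that in vehicle wells, taken as the median of duplicate plates.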

Elesclomol + Alpelisib = compound: CN(NC(=O)CC(=O)NN(C)C(=S)c1ccccc1)C(=S)c1ccccc1 [Elesclomol] + Cc1nc(NC(=O)N2CCC[C@H]2C(N)=O)sc1-c1ccnc(C(C)(C)C(F)(F)F)c1 [Alpelisib] (partner 2 µM)
Method in brief: as §1

Elesclomol + Luminespib = compound: CN(NC(=O)CC(=O)NN(C)C(=S)c1ccccc1)C(=S)c1ccccc1 [Elesclomol] + CCNC(=O)c1noc(-c2cc(C(C)C)c(O)cc2O)c1-c1ccc(CN2CCOCC2)cc1 [Luminespib] (partner 0.01 µM)
Method in brief: as §1

Elesclomol + Foretinib = compound: CN(NC(=O)CC(=O)NN(C)C(=S)c1ccccc1)C(=S)c1ccccc1 [Elesclomol] + COc1cc2c(Oc3ccc(NC(=O)C4(C(=O)Nc5ccc(F)cc5)CC4)cc3F)ccnc2cc1OCCCN1CCOCC1 [Foretinib] (partner 0.25 µM)
Method in brief: as §1

Elesclomol + Decitabine = compound: CN(NC(=O)CC(=O)NN(C)C(=S)c1ccccc1)C(=S)c1ccccc1 [Elesclomol] + Nc1ncn([C@H]2C[C@H](O)[C@@H](CO)O2)c(=O)n1 [Decitabine] (partner 2 µM)
Method in brief: as §1

Cell Line	relative viability (Elesclomol + OSI-027; first compound 0.003162 µM)	relative viability (Elesclomol + OSI-027; first compound 0.01 µM)	relative viability (Elesclomol + OSI-027; first compound 0.03162 µM)	relative viability (Elesclomol + OSI-027; first compound 0.1 µM)	relative viability (Elesclomol + Alpelisib; first compound 0.003162 µM)	relative viability (Elesclomol + Alpelisib; first compound 0.01 µM)	relative viability (Elesclomol + Alpelisib; first compound 0.03162 µM)	relative viability (Elesclomol + Alpelisib; first compound 0.1 µM)	relative viability (Elesclomol + Luminespib; first compound 0.003162 µM)	relative viability (Elesclomol + Luminespib; first compound 0.01 µM)	relative viability (Elesclomol + Luminespib; first compound 0.03162 µM)	relative viability (Elesclomol + Luminespib; first compound 0.1 µM)	relative viability (Elesclomol + Foretinib; first compound 0.003162 µM)	relative viability (Elesclomol + Foretinib; first compound 0.01 µM)	relative viability (Elesclomol + Foretinib; first compound 0.03162 µM)	relative viability (Elesclomol + Foretinib; first compound 0.1 µM)	relative viability (Elesclomol + Decitabine; first compound 0.003162 µM)	relative viability (Elesclomol + Decitabine; first compound 0.01 µM)	relative viability (Elesclomol + Decitabine; first compound 0.03162 µM)	relative viability (Elesclomol + Decitabine; first compound 0.1 µM)
RERF-LC-KJ	0.406	0.372	0.242	0.188	0.702	0.352	0.252	0.275	0.656	0.418	0.34	0.457	0.858	0.812	0.522	0.323	0.414	0.288	0.297	0.222
NCI-H322M	0.565	0.328	0.268	0.116	0.933	–	0.645	0.173	0.311	0.288	0.231	0.14	0.837	0.656	0.356	0.26	0.608	0.511	0.402	0.29
NCI-H1651	0.523	0.527	0.259	0.102	0.762	0.435	0.235	0.0895	0.944	0.361	0.157	0.0878	0.727	0.436	0.0766	0.0932	0.596	0.608	0.577	0.4
HARA	0.524	0.211	0.31	0.0896	0.803	0.687	0.944	0.17	0.545	0.669	0.1	0.0826	0.875	0.878	0.691	0.238	0.562	0.584	0.271	0.158
H3255	0.538	0.537	0.489	0.421	0.721	0.473	0.348	0.309	0.883	0.875	0.547	0.395	0.765	0.884	0.57	0.398	0.617	0.486	0.296	0.243
NCI-H441	0.563	0.37	0.327	0.103	0.701	0.624	0.233	0.0722	0.312	0.446	0.29	0.111	1.07	0.924	0.513	0.127	0.22	0.209	0.216	0.127
ABC-1	0.227	0.19	0.225	0.196	0.292	0.313	0.23	0.256	0.254	0.206	0.322	0.223	0.255	0.221	0.259	0.215	0.409	0.345	0.318	0.279
